Where two headings read alike, the source gives them in different places.
Tests used:
GAL2 (h) = target: T1, GAL2 (h) (Homo sapiens, UniProt O43603); experiment: Radioligand binding
T1 construct: Cerep

V1a (h) = target: T2, V1a (h) (Homo sapiens, UniProt P37288); experiment: Radioligand binding
T2 construct: Cerep (contract screening)

D1 (h) = target: T3, D1 (h) (Homo sapiens, UniProt P21728); experiment: Radioligand binding
T3 construct: Cerep

CCK1 (CCKA) (h) = target: T4, CCK1 (CCKA) (h) (Homo sapiens, UniProt P32238); experiment: Radioligand binding
T4 construct: Cerep (contract study)

m (MOP) (h) = target: T5, m (MOP) (h) (Homo sapiens, UniProt P35372); experiment: Radioligand binding
T5 construct: Cerep

b2 (h) = target: T6, b2 (h) (Homo sapiens, UniProt P07550); type: binding
T6 construct: Cerep (contract study)

CYP2C19 = CYP2C19 (Homo sapiens, UniProt P33261); experiment: CYP inhibition, human liver microsomes; conditions: 10 µM
[1] = system: P. falciparum strain NF54; experiment: Growth inhibition assay; type: cell-based; conditions: Plasmodium falciparum
[2] = system: drug-resistant P. falciparum lab strains other than Dd2; experiment: Growth inhibition assay; type: cell-based; conditions: Plasmodium falciparum
5-HT7 (h) = target: T7, 5-HT7 (h) (Homo sapiens, UniProt P34969); experiment: Radioligand binding
T7 construct: Cerep (contract screening)

NK2 (h) = target: T8, NK2 (h) (Homo sapiens, UniProt P21452); experiment: Radioligand binding
T8 construct: Cerep

P. falciparum strain 7G8 = experiment: microbe, parasite or virus in culture; type: cell-based; conditions: Plasmodium falciparum
[3] = system: 54 human transporters and receptors; experiment: In vitro safety pharmacology profiling, whole panel; type: binding
Procedure: The study was carried out by Cerep (Celle l'Evescault, France). An in vitro pharmacological profiling panel was designed to detect potential high-risk clinical adverse drug reactions. The panel comprised of 54 targets.
The specific ligand binding to the receptors was defined as the difference between the total binding and the non-specific binding determined in the presence of an excess of unlabelled ligand. Results were expressed as a per cent of control specific binding and as a per cent inhibition of control specific obtained in the presence of the test compounds. Results showing an inhibition (or stimulation) >50% were considered to represent significant effects of the test compounds. […] The IC50 values were determined by non-linear regression analysis of the competition curves generated with mean replicate values using Hill equation curve fitting. The inhibition constants (Ki) were calculated using the Cheng Prusoff equation.

A1 (h) = target: T9, A1 (h) (Homo sapiens, UniProt P30542); experiment: Radioligand binding
T9 construct: Cerep (contract study)

PK study = type: in vivo, mouse; conditions: for half-life: mouse; for MRT last: read-out: MRT0-t; for time of peak plasma concentration (Cmax): single i.p. dose in mice
Procedure: On the treatment day, all animals were weighed and the dosing volume was calculated for each individual animal according to its actual body weight. All animal were dosed once. Blood samples were taken at different time points and plasma was collected after centrifugation (10,000g, 10 min, 4 °C). Plasma samples were analysed by LC–MS/MS. […] All relevant observations were recorded. The PK studies in cynomolgus monkeys and beagle dogs were performed by the Laboratory of Pharmacology and Toxicology (LPT), Hamburg, and PK and toxicity studies in mice and rats were performed by the 4SC Discovery GmbH, Munich. PK parameters were obtained by a non-compartment analysis, using Kinetica 4.1 (Thermo Scientific).

[4] = In vitro micronucleus assay; conditions: 60 μM
Plasmodium berghei = experiment: Rodent malaria model; type: in vivo; conditions: P. berghei, 30 mg kg-1 i.p. 1x4 days
Procedure: This was the case for both an in vivo 4 day dosing regimen of 30 mg kg^−1 per day and an ex vivo one-cycle growth inhibition assay. […] Differential therapeutic efficacy in various rodent model systems is a well-established phenomenon and is typically associated with charged compounds, such as positively charged amidines and negatively charged phosphoric acid or carboxylic acid containing drugs. The phenomenon is explained based on selective uptake of charged compounds through parasite-induced channels, termed new permeation pathways, in the host cell plasma membrane and species-specific characteristics of the new permeation pathways.

401 human kinases = experiment: Kinase competition assay, whole panel; type: binding; conditions: 10 μM
Procedure: The KINOMEscan was carried out by Ambit (San Diego, USA) according to a previously established protocol. The experiment was based on a competition binding assay that quantitatively measures the ability of a compound to compete with an immobilized, active-site directed ligand. The assay is performed by combining three components: DNA-tagged kinase; immobilized ligand; and a test compound. The ability of the test compound to compete with the immobilized ligand is measured via quantitative PCR of the DNA tag.
For most assays, kinase-tagged T7 phage strains were grown in parallel in 24-well blocks in an Escherichia coli host derived from the BL21 strain. E. coli were grown to log-phase and infected with T7 phage from a frozen stock and incubated with shaking at 32 °C until lysis (90–150 min). The lysates were centrifuged (6,000g) and filtered (0.2 μm) to remove cell debris. The remaining kinases were produced in HEK-293 cells (Sigma Aldrich, catalogue number: 85120602) and subsequently tagged with DNA for quantitative PCR detection. […] The liganded beads were blocked with excess biotin and washed with blocking buffer (SeaBlock (Pierce), 1% bovine serum albumin, 0.05% Tween 20 and 1 mM dithiothreitol) to remove unbound ligand and to reduce non-specific phage binding. […] The kinase concentration in the eluates was measured by quantitative PCR.

5-HT1A (h) = target: T10, 5-HT1A (h) (Homo sapiens, UniProt P08908); experiment: Radioligand binding
T10 construct: Cerep

Y2 (h) = target: T11, Y2 (h) (Homo sapiens, UniProt P49146); experiment: Radioligand binding
T11 construct: Cerep

[5] = CYP2C19a, omeprazole to 5-OH-omeprazole
[6] = CYP2C19b, omeprazole to desmethylomeprazole
[7] = plasma, iv, mouse i.v. 2 mg kg^−1
[8] = plasma, ip, mouse i.p. 20 mg kg^−1

Chain of CYP2C19 (P33261 whole entry): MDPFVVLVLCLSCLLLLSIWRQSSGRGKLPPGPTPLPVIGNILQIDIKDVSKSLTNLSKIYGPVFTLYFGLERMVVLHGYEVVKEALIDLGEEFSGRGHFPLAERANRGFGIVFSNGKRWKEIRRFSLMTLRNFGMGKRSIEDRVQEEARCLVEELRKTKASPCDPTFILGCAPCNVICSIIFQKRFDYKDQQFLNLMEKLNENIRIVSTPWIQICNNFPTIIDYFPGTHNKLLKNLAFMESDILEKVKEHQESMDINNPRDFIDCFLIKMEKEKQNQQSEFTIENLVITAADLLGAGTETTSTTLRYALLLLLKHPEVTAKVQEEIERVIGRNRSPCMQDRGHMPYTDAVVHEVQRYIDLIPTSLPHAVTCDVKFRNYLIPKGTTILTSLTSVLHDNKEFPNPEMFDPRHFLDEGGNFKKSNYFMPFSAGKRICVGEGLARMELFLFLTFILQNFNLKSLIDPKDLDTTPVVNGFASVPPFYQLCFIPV
T11 sequence (P49146 whole entry): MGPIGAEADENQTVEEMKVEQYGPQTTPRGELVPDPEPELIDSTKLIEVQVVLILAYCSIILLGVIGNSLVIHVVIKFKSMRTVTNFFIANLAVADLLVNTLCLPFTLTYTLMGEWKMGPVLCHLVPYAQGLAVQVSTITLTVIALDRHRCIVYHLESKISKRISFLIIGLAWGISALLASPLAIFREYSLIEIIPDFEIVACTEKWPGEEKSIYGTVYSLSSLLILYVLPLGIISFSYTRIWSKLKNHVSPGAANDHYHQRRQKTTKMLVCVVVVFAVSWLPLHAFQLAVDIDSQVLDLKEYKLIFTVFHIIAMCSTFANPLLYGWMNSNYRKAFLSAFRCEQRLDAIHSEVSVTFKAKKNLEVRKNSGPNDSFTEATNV
T3 sequence (P21728 whole entry): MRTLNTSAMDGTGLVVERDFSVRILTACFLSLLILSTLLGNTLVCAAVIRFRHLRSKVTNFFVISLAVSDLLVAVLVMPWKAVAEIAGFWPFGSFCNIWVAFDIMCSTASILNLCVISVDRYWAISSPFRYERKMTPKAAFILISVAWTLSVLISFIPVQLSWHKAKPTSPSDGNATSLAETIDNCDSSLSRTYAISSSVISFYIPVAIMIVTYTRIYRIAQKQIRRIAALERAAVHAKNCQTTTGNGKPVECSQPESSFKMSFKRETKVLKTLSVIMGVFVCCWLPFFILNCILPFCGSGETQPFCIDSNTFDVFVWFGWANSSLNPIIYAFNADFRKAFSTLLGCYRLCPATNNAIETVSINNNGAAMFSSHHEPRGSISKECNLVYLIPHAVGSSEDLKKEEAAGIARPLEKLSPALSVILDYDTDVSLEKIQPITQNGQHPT
T6 sequence (P07550 whole entry): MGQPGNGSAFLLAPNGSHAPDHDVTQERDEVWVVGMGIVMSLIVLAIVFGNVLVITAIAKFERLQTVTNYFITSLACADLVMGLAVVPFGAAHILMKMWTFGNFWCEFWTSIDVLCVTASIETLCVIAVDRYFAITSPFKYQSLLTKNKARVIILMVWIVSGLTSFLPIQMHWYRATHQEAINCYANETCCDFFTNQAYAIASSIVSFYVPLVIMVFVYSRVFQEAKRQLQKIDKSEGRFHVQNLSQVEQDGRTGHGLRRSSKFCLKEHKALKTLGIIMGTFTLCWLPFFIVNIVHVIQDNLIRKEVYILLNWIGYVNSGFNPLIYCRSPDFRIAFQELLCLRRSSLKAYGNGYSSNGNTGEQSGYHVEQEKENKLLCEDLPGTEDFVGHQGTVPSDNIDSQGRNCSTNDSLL
T10 sequence (P08908 whole entry): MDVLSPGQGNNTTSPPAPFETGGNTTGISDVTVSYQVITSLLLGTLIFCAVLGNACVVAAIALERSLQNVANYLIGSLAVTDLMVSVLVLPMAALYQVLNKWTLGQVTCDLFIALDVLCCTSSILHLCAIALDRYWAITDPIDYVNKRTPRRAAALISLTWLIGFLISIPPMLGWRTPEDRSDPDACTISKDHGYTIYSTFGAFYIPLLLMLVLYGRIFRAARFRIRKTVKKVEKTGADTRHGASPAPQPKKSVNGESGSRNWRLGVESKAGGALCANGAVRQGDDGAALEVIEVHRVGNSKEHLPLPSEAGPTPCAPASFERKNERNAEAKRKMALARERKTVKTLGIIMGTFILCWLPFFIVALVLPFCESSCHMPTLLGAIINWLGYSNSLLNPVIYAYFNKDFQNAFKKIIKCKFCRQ
T7 sequence (P34969 whole entry): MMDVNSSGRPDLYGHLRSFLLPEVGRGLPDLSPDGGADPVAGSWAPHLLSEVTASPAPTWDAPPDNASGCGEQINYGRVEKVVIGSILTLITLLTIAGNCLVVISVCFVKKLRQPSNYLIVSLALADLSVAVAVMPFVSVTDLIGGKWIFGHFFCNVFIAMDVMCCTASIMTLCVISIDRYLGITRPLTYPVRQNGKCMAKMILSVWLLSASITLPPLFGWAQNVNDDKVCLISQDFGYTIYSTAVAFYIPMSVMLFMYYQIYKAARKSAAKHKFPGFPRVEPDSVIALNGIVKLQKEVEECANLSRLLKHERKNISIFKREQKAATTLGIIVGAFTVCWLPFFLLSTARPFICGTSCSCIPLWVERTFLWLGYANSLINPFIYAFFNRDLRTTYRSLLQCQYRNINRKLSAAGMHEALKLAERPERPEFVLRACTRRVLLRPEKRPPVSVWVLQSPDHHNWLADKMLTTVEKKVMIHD
T1 sequence (O43603 whole entry): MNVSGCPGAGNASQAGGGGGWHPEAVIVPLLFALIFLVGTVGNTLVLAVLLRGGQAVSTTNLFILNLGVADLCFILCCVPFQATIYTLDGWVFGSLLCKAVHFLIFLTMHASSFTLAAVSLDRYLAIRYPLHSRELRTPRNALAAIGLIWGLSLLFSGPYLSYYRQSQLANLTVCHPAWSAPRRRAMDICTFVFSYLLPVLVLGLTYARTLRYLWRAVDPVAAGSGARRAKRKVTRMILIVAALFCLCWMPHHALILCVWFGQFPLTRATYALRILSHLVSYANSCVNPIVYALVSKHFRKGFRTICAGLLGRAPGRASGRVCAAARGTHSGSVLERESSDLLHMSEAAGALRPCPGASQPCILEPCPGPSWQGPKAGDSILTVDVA
T5 sequence (P35372 whole entry): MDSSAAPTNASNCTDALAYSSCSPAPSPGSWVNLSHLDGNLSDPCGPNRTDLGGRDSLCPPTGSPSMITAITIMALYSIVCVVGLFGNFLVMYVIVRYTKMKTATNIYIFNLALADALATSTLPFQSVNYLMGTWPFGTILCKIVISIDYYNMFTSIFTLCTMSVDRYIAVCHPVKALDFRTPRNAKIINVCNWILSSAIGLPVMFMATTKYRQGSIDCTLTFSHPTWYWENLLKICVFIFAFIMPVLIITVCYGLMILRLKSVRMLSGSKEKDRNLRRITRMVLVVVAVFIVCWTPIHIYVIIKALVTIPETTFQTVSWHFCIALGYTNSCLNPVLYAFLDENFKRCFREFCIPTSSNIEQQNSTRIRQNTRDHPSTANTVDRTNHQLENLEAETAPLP
T2 sequence (P37288 whole entry): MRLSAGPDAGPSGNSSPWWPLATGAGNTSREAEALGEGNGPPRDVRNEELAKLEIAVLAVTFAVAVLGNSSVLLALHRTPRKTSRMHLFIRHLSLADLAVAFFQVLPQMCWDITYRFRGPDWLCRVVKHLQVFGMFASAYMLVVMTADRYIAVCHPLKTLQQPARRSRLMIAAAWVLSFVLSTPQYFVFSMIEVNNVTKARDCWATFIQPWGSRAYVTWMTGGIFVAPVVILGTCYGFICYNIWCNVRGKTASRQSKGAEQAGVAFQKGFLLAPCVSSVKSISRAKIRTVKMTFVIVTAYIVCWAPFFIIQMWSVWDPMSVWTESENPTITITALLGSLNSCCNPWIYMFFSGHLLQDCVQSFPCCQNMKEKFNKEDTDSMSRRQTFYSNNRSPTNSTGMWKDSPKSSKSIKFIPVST
T8 sequence (P21452 whole entry): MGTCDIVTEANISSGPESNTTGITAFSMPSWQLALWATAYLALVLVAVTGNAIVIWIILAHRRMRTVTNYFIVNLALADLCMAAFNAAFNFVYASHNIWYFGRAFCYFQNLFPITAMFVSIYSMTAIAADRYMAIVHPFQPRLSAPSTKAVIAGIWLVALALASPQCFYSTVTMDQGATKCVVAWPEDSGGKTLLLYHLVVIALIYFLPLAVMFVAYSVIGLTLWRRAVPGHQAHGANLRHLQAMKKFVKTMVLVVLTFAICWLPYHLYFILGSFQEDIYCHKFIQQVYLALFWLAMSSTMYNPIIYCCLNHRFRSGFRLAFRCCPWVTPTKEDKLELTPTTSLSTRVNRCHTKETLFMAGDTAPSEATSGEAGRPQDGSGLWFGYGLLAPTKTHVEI
T4 sequence (P32238 whole entry): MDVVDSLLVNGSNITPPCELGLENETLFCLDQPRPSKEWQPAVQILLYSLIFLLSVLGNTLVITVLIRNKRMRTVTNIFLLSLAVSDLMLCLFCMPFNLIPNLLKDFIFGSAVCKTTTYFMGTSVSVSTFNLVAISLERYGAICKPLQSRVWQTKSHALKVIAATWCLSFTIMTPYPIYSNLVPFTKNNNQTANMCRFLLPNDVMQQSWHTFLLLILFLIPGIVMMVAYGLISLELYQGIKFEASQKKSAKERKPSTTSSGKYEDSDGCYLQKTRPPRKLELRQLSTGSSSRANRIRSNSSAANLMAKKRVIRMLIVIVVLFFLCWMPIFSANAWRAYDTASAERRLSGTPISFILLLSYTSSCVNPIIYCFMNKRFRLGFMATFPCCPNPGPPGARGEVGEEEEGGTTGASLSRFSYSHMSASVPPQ

Compound	Inhibition of control specific binding (GAL2 (h)) [%]	Inhibition of control specific binding (V1a (h)) [%]	Inhibition of control specific binding (D1 (h)) [%]	Inhibition of control specific binding (CCK1 (CCKA) (h)) [%]	Inhibition of control specific binding (m (MOP) (h)) [%]	Inhibition of control specific binding (b2 (h)) [%]	Remaining enzyme activity (CYP2C19; [5]) [%]	Remaining enzyme activity (CYP2C19; [6]) [%]	IC50 [1] [nM]	IC50 [2] [nM]	Inhibition of control specific binding (5-HT7 (h)) [%]	Inhibition of control specific binding (NK2 (h)) [%]	IC50 (P. falciparum strain 7G8) [nM]	binding potential to 54 human transporters and receptors [3]	Inhibition of control specific binding (A1 (h)) [%]	time of peak plasma concentration (Cmax) (PK study) [min]	mutagenic or clastogenic activity, in vitro micronucleus assay [4]	Outcome (Plasmodium berghei)	interference with 401 human kinases (401 human kinases)	Inhibition of control specific binding (5-HT1A (h)) [%]	also measured
COC(=O)N1CCN(C(=N)c2cccc(NC(=O)Nc3ccc(S(=O)(=O)NCc4ccc(S(N)(=O)=O)cc4)cc3)c2)CC1 [SC83288, methyl 4-(imino(3-(3-(4-(N-(4-sulfamoylbenzyl)sulfamoyl)phenyl)ureido)phenyl)methyl) piperazine-1-carboxylate]	4	11	79	-5	25	27	104	96	2 ± 1	< 20	4	20	10 ± 1	low to moderate	8	≤ 30	no signs	inactive	did not interfere	15	VC (PK study; mouse i.v. 2 mg kg^−1): 0.549 L/kg; half-life (PK study; plasma, ip, 10 mg/kg, mice, i.p. 2.5, 5.0 and 10.0 mg kg^−1, read-out: effective half time t1/2): 29 to 55 min; half-life (PK study; plasma, iv, 2 mg/kg, mouse i.v. 2 mg kg^−1, read-out: t1/2 effective): 12 min; half-life (PK study; plasma, iv, 2 mg/kg, mouse i.v. 2 mg kg^−1, read-out: t1/2 initial): 9 min; half-life (PK study; plasma, iv, 2 mg/kg, mouse i.v. 2 mg kg^−1, read-out: t1/2 terminal): 43 min; AUC(0-inf) (PK study; plasma, ip, mouse i.p. 10 mg kg^−1): 2020 ng·h/mL; AUC(0-inf) (PK study; [7]): 891 ng·h/mL; C0 (PK study; [7]): 3640 ng/mL; Cmax (PK study; [7]): 2560 ng/mL; Tmax (PK study; [7]): 5 min; clearance (PK study; [7]): 37.4 mL/min/kg; MRT last (PK study; [7]): 16.8 min; Inhibition of control specific binding (Y2 (h)): -4%
CCCCN1CCN(C(=N)c2cccc(NC(=O)Nc3ccc(S(=O)(=O)NCc4ccc(S(N)(=O)=O)cc4)cc3)c2)CC1 [SC81458, 4-(3-(3-((4-butylpiperazin-1-yl)(imino)methyl)phenyl)ureido)-N-(4-sulfamoylbenzyl) benzenesulfonamide]	-15	-1	51	0	24	6	87	89	0.4 ± 0.05	< 20	19	51	18 ± 5	low to moderate	7	≤ 30	no signs	inactive	did not interfere	2	CL (PK study; mouse i.p. 20 mg kg^−1): 4,607 ml h^−1 kg^−1; half-life (PK study; plasma, ip, 20 mg/kg, mouse i.p. 20 mg kg^−1, read-out: t1/2 effective): 52 min; half-life (PK study; plasma, ip, 20 mg/kg, mouse i.p. 20 mg kg^−1, read-out: t1/2 terminal): 860 min; AUC(0-inf) (PK study; [8]): 4340 ng·h/mL; Cmax (PK study; [8]): 7380 ng/mL; Tmax (PK study; [8]): 30 min; bioavailability (PK study; plasma, ip, mouse i.p. 20 mg kg^−1, read-out: F, relative bioavailability compared to i.v.): 62%; MRT last (PK study; [8]): 74.4 min; Inhibition of control specific binding (Y2 (h)): -20%

From publication PMC5290327, “SC83288 is a clinical development candidate for the treatment of severe malaria” (Nature Communications, 2017)
